Reference: patent publication US20230183243A1, “HETEROARYL DERIVATIVES AND PHARMACEUTICAL COMPOSITION COMPRISING SAME AS ACTIVE INGREDIENT” (VORONOI INC., priority 2019, published 2023)

Key:
LRRK2(G2019S) = biological target: T1, LRRK2(G2019S) (Homo sapiens, UniProt Q5S007, G2019S); assay: ScanMAX Kinase panel (DiscoverX); format: binding; settings: read-out: % Cont @ 1 μM
T1 construct: purchased DiscoverX Corp. (ScanMAX Kinase panel, commissioned)
Procedure: (§1) Specifically, the enzyme (kinase) selectivity of the compound of Example 7 selected from the Example compounds of the present invention was measured by commissioning DiscoverX Corp., and an experiment was performed using a panel for ScanMAX™ Kinase analysis.
(§2) In this case, the concentration of a drug treated with the enzyme was set at 1 μM in DMSO, and percent control (% control) was defined in the same manner as in the following Expression 1.
(§3) (Example compound−Positive control)/(Negative control−Positive control)×100 [Expression 1]
(§4) Wherein the positive control represents a compound having a percent control of 0%, and the negative control represents a compound having a percent control of 100% in DMSO. For the enzyme selectivity of the present invention, the compound was also judged to have activity against the corresponding enzyme when the percent control for each of the enzymes was <30% (i.e., less than 30%).
(§5) Further, to evaluate the inhibitory activity of the compound according to the present invention against more enzymes, an experiment was performed as follows. Specifically, the enzyme (kinase) selectivity of the compound of Example 64 selected from the Example compounds of the present invention was measured by commissioning DiscoverX Corp., and an experiment was performed using a panel for ScanMAX™ Kinase analysis. In this case, the concentration of a drug treated with the enzyme was set at 1 μM in DMSO, and the percent control (% control) were defined in the same manner as in the following Expression 1.
as §4, with “<35%” for “<30%”, “35%).” for “30%).”

GRK4 = biological target: T2, GRK4 (Homo sapiens, UniProt P32298); assay: ScanMAX Kinase panel (DiscoverX); format: binding; settings: read-out: % Cont @ 1 μM
T2 construct: purchased DiscoverX Corp. (ScanMAX Kinase panel, commissioned)
T2 sequence (P32298 whole entry): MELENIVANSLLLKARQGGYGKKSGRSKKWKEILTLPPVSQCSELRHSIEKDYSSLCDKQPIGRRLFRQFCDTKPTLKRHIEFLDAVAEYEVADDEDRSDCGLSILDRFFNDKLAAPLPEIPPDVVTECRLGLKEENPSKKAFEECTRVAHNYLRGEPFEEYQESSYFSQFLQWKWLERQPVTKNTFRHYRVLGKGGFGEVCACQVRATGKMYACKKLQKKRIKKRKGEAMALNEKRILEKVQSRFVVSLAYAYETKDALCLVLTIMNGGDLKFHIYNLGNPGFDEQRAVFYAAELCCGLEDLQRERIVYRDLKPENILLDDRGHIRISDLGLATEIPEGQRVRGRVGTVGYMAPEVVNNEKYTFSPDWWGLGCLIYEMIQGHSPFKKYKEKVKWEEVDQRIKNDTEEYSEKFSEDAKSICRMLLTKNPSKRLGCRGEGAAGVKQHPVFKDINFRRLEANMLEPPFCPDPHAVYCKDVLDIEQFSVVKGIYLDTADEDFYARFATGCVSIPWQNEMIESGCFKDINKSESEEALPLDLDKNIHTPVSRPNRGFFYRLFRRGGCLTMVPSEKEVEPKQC
Procedure: as §1, §2, §3, §4, §5
as §4, with “<35%” for “<30%”, “35%).” for “30%).”

SRPK3 = biological target: T3, SRPK3 (Homo sapiens, UniProt Q9UPE1); assay: ScanMAX Kinase panel (DiscoverX); format: binding; settings: read-out: % Cont @ 1 μM
T3 construct: purchased DiscoverX Corp. (ScanMAX Kinase panel, commissioned)
T3 sequence (Q9UPE1 whole entry): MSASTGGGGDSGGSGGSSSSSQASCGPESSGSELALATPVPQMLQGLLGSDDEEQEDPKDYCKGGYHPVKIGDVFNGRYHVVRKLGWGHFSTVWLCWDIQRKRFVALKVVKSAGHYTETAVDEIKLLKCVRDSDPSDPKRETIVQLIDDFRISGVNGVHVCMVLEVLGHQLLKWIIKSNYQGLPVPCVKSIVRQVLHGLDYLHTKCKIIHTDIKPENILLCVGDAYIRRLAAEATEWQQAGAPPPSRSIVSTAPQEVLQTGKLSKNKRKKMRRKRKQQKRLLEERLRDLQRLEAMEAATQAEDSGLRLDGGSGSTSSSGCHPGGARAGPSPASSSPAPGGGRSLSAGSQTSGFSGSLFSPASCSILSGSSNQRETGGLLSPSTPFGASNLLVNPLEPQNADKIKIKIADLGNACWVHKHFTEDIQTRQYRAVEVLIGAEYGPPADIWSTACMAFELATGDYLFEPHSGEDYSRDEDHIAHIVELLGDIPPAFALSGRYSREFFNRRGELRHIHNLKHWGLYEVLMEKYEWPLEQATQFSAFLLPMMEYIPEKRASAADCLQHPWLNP
Procedure: as §1, §2, §3, §4, §5
as §4, with “<35%” for “<30%”, “35%).” for “30%).”

RIPK5 = biological target: T4, RIPK5 (Homo sapiens, UniProt Q6XUX3); assay: ScanMAX Kinase panel (DiscoverX); format: binding; settings: read-out: % Cont @ 1 μM
T4 construct: purchased DiscoverX Corp. (ScanMAX Kinase panel, commissioned)
T4 sequence (Q6XUX3 whole entry): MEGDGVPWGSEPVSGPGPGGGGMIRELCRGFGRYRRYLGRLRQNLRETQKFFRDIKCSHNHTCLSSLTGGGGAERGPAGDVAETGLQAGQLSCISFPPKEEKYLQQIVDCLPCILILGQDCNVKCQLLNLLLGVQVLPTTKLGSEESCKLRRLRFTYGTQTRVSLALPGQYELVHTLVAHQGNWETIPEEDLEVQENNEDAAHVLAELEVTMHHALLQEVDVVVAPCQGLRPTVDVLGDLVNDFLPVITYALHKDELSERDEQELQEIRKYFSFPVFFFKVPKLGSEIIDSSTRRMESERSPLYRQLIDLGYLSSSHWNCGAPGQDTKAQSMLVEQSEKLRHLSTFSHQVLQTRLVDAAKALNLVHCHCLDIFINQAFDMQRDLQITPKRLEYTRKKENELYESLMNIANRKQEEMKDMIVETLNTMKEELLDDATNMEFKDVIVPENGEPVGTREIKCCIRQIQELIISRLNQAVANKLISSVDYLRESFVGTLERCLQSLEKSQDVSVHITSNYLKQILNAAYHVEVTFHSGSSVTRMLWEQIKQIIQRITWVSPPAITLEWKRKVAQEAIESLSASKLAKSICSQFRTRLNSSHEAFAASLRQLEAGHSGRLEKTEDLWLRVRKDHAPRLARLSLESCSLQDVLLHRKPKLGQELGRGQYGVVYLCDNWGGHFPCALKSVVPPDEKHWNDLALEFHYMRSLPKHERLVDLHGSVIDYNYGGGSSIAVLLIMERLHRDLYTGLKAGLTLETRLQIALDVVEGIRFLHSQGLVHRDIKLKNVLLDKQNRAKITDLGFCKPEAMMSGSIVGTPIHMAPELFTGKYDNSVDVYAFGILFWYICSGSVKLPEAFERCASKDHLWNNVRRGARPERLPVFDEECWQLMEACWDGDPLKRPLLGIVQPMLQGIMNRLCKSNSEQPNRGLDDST
Procedure: as §1, §2, §3, §4, §5
as §4, with “<35%” for “<30%”, “35%).” for “30%).”

JNK1 = biological target: T5, JNK1 (Homo sapiens, UniProt P45983); assay: ScanMAX Kinase panel (DiscoverX); format: binding
T5 construct: purchased DiscoverX Corp. (ScanMAX Kinase panel, commissioned)
T5 sequence (P45983 whole entry): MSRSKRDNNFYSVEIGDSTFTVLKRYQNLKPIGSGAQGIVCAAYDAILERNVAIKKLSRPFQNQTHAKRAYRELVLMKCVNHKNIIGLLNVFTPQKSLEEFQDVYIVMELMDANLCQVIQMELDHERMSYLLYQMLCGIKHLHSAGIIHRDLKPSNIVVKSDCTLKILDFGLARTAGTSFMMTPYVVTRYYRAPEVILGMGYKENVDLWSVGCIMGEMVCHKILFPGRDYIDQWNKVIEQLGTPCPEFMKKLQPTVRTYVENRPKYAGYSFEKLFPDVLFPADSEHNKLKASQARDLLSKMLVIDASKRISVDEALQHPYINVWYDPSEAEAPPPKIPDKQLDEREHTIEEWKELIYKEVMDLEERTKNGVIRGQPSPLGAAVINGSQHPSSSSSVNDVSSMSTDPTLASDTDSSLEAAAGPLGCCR
Procedure: as §1, §2, §3, §4, §5
as §4, with “<35%” for “<30%”, “35%).” for “30%).”

MDA-MB-231 cells = assay: Inhibition of proliferation of triple-negative breast cancer cells, CellTiter-Glo; format: cell-based; settings: Homo sapiens, 120 h; MDA-MB-231, cultured for 5 days
In short: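 MDA-MB-231 cells pre-cultured 24 h (5% CO2, 37 °C), then exposed to compound for 5 days at 12 three-fold dilutions, final 10 μM to 0.05 nM. Viability read by CellTiter-Glo luminescence after 10 min at 37 °C; growth inhibition calculated relative to untreated solvent-control cells.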

TTK = biological target: T6, TTK (Homo sapiens, UniProt P33981); assay: TTK enzyme activity, ADP-Glo kinase assay; format: biochemical; parameters: purchased SignalChem T20-10G; settings: purified human TTK, ATP 10 μM, 25° C., 2 hours
T6 sequence (P33981 1-857): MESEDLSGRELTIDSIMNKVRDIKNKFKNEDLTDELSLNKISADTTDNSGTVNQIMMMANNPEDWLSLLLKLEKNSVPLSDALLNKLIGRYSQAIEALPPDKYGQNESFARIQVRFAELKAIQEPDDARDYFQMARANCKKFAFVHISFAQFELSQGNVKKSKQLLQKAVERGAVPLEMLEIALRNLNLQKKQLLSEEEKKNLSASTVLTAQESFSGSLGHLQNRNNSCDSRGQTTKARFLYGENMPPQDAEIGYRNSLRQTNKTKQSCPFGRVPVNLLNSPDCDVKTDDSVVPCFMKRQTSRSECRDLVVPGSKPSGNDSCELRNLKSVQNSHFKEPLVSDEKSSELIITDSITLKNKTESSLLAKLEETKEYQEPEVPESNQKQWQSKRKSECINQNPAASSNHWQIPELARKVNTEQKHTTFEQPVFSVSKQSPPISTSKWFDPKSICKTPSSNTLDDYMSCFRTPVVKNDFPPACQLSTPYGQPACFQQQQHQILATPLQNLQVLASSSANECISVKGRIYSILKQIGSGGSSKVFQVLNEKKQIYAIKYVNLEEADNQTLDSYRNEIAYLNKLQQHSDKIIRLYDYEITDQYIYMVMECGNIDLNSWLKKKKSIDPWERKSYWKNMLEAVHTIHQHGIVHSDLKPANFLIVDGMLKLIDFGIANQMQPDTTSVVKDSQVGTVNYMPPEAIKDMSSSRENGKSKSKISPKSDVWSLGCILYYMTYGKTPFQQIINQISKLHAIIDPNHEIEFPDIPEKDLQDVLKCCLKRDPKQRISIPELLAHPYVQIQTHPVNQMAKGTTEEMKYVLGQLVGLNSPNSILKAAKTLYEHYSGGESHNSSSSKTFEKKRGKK
In short: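 Purified human TTK (25 ng) incubated with 10 μM ATP and substrate (0.2 μg) for 2 h at 25 °C in Tris-HCl pH 7.4, MgCl2, BSA, DTT buffer. ADP formation read by ADP-Glo; inhibition calculated against untreated solvent control.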

T1 sequence (Q5S007 whole entry G2019S): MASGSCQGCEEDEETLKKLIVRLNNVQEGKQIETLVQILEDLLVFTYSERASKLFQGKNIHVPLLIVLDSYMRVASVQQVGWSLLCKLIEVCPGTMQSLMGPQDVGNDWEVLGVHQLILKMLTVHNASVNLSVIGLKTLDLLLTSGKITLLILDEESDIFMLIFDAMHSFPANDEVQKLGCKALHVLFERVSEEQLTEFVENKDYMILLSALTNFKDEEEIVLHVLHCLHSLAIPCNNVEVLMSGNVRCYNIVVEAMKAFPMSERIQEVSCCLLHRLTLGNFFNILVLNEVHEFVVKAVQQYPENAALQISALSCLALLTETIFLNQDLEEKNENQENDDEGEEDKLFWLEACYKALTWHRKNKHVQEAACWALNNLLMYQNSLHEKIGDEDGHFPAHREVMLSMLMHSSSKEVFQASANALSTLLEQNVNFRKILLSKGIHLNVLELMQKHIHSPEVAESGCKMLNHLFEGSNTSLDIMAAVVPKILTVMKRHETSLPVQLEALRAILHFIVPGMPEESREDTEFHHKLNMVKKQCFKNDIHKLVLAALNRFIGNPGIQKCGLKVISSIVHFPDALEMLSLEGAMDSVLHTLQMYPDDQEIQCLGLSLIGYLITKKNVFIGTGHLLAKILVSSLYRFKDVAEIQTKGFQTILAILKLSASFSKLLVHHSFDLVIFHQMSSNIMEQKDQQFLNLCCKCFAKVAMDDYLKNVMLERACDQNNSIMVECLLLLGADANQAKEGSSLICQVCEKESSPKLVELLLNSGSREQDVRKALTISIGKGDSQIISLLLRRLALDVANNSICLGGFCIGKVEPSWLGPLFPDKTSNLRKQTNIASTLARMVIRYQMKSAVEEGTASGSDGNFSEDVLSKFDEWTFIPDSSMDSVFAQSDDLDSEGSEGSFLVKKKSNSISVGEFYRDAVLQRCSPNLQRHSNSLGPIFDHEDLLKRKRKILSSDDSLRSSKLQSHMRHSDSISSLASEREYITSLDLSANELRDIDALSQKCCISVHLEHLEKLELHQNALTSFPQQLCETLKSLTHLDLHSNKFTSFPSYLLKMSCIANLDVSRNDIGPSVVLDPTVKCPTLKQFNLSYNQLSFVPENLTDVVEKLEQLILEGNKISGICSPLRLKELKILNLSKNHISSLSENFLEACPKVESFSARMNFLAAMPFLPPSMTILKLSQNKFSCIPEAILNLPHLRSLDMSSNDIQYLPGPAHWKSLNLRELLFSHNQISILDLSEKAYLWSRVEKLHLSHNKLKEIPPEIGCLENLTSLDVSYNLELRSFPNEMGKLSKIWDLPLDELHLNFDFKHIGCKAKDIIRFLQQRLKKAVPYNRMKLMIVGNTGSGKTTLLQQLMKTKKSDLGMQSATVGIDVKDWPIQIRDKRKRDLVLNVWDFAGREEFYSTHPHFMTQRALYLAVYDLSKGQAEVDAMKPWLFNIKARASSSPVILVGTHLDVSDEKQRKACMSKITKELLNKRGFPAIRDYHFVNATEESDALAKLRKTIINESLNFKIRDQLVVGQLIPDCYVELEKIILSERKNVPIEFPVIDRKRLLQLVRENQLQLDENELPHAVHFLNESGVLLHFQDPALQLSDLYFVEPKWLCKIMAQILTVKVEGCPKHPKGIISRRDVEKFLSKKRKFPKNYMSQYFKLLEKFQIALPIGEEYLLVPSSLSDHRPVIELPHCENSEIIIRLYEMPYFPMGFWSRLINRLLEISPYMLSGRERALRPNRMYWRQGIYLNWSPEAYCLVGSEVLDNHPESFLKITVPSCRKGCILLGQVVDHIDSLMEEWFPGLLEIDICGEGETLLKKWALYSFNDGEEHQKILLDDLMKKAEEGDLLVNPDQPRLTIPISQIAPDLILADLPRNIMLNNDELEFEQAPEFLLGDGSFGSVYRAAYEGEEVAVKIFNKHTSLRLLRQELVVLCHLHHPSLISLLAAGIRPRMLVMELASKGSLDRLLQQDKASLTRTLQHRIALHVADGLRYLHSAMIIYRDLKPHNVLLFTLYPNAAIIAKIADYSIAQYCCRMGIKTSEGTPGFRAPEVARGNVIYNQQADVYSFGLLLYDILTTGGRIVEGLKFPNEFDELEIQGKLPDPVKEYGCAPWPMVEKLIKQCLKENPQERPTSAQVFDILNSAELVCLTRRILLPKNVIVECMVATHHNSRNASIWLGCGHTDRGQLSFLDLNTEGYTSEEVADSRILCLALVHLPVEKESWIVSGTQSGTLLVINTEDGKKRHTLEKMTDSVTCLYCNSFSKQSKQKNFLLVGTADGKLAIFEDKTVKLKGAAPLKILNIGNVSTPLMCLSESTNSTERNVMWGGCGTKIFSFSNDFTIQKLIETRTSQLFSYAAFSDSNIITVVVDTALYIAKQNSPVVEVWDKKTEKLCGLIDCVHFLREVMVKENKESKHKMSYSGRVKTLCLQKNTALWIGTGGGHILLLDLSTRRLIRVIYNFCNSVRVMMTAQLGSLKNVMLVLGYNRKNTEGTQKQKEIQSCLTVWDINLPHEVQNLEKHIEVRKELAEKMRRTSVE

COc1cc(-c2ccnn2C)ccc1Nc1nc(NC2CCCCC2)c2c(C#N)c[nH]c2n1 [Example 7, 4-(cyclohexylamino)-2-((2-methoxy-4-(1-methyl-1H-pyrazol-5-yl)phenyl)amino)-7H-pyrrolo[2,3-d] pyrimidine-5-carbonitrile]
percent of control (kinase binding) at 1 µM (LRRK2(G2019S)): 2.7%
remaining binding at 1 µM (GRK4): 29%
remaining binding at 1 µM (SRPK3): 30%
percent of control binding at 1 µM (RIPK5): 17%
% Cont @ 1 μM (JNK1): 2%
GI50 (MDA-MB-231 cells): < 100 nM
IC50 (TTK): < 50 nM

COc1cc(N2CCCC2=O)ccc1Nc1cc(NC2CCCCC2)c2c(C#N)c[nH]c2n1 [Example 64, 4-(cyclohexylamino)-6-((2-methoxy-4-(2-oxopyrrolidin-1-yl)phenyl)amino)-1H-pyrrolo[2,3-b] pyridine-3-carbonitrile]
percent of control (kinase binding) at 1 µM (LRRK2(G2019S)): 17%
remaining binding at 1 µM (GRK4): 26%
remaining binding at 1 µM (SRPK3): 28%
percent of control binding at 1 µM (RIPK5): 30%
% Cont @ 1 μM (JNK1): 0.9%
GI50 (MDA-MB-231 cells): < 100 nM
IC50 (TTK): < 50 nM
